This note sets out measurements from patent publication US20030138508A1 (priority 2001, published 2003).

Structures are written as SMILES.

The test system of data set [1] is Male ICR mice. To be noted: mouse, in vivo, iv.
In data set [2] the test system is Male ICR mice. To be noted: mouse, in vivo, iv. This is another data set of the same source.
The format of data set [3] is physicochemical.
Data set [4] deals with Male ICR mice. To be noted: mouse, in vivo, iv, 0.7 mg/kg.

Take `CCCCCc1cc(O)c2c(c1)OC(C)(C)[C@@H]1CCC(C)=C[C@@H]21` [THC, Δ^9-Tetrahydrocannabinol]: in the data set with Male ICR mice [1], the inactive dose is listed as 0.7 mg/kg. In the data set on Male ICR mice [2], the “LD50 [95% CL's]” value was 75.4 [66.5-85.5] mg/kg. This molecule also displayed a recovery from aerosol in data set [3] of about 87.5%. Further, the TI in the data set with Male ICR mice [4] stood at 47.
